# pIC50: −log10 of the molar value.
# Legend:
# rP2X4 = conditions: ref Ase et al. (2015); cited from earlier work
# human P2X4 open channel = test system: human P2X4 open channel; set-up: method as in Bidula et al. (2022); conditions: ref Bidula et al. (2022); cited from earlier work
# [1] = target: T1, rat P2X4 wild type (r4-WT) (Rattus norvegicus, UniProt P51577); experiment: ATP-induced calcium influx (Fluo-4) in 1321N1 cells stably expressing rat P2X4 wild type; type: cell-based
# T1 construct: expressed in transfected cells; host or cells: 1321N1 astrocytoma cells, stably transfected
# T1 sequence (P51577 1-388): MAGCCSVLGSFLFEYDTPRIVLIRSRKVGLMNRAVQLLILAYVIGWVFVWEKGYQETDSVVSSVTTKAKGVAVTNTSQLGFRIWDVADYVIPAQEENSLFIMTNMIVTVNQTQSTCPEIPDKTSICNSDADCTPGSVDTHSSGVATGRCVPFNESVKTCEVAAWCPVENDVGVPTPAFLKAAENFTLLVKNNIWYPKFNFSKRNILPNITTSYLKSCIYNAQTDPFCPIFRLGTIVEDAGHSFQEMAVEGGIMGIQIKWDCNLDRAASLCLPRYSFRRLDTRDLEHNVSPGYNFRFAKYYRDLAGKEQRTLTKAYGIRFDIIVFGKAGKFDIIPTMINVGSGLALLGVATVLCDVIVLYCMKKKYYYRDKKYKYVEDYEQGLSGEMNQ
# Description: (§1) 1321N1 astrocytoma cells were cultured (at 37°C, 5% CO2) in Dulbecco’s modified Eagle’s medium (DMEM/F-12 with Glutamax) supplemented with 10% foetal bovine serum (FBS) and 200 unit/mL of penicillin and streptomycin antibiotics (Fisher Scientific). Stably transfected clones were grown in DMEM/F-12 with Glutamax medium supplemented with G-418 (Geneticin®, Fisher Scientific), 600 μg/mL and 150 μg/mL during selection and maintenance, respectively. FuGene HD Transfection Reagent (Promega) was used according to the manufacturer’s protocol for the generation of stable cell line expressing h4-WT, r4-WT, h4-I312T, and r4-T312I. Each cell line was then tested for P2X4 receptor expression by Western blot and for functionality using the Ca^2+ influx assay.
# (§2) Cells were plated the day before assay into poly-lysine-coated 96-well plates at 40–55,000 cells/mL. To load cells with calcium-sensitive fluorescent dye, culture medium was replaced with modified Ringer’s buffer (140 mM NaCl, 10 mM HEPES, 10 mM Glucose, 1 mM MgCl2, 1 mM CaCl2, 2.5 mM KCl, 0.5% BSA, pH = 7.4) containing 2.6 μM FLUO4-AM (Fisher Scientific) and 250 μM probenecid (Sigma), and cells were incubated for 20–30 min. Prior to assay, buffer was replaced with fresh modified Ringer’s buffer containing probenecid but not the dye. […] A Fluoroskan Ascent FL plate reader (Fisher Scientific) equipped with a solution dispenser and an appropriate filter pair (excitation: 485 nm, emission: 538 nm) was used to record 5-s baseline followed by P2X4-mediated calcium influx measurements for 20–25 s after ATP stimulation (final concentration ranging between 0.03 and 100 μM in buffered solution, pH = 7.4). The collected responses were normalized to the first data-point recorded after ATP injection.
# Data processing and data analysis were carried out using Graphpad Prism version 6 for Mac. Figures are presented as Mean ± SEM. Statistical significance of any difference observed between samples was calculated through one-way ANOVA followed by Dunnett’s multiple comparisons test with a single pooled variance (control, unless otherwise specified) or, when comparing only two sets of data, using an unpaired t-test with Welch’s correction. When comparing data obtained from multiple independent experiments (N), each dataset was normalized to the mean value obtained for the vehicle control.
# [2] = target: T2, human P2X4 I312T (h4-I312T) (Homo sapiens, UniProt Q99571, I312T); experiment: ATP-induced calcium influx (Fluo-4) in 1321N1 cells stably expressing human P2X4 I312T; type: cell-based
# T2 construct: expressed in transfected cells; host or cells: 1321N1 astrocytoma cells, stably transfected
# T2 sequence (Q99571 1-388 I312T): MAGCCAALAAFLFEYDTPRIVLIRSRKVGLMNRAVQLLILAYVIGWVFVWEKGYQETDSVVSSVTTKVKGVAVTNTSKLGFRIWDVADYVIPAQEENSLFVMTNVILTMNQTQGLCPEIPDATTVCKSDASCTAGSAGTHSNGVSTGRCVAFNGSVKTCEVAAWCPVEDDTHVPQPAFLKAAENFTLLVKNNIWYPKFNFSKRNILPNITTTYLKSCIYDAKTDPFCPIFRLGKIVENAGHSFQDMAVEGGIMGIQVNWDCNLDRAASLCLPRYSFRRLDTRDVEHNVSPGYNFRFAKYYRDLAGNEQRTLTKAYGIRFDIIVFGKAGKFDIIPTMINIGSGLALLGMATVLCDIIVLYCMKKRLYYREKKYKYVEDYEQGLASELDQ
# Description: Plasmid encoding rat P2X4 (r4-WT) ([Royle et al., 2005]) was a kind gift from Ruth Murrell-Lagnado, whilst that encoding human P2X4 with a C-terminal (His)10 tag has been reported previously ([Young et al., 2008]).
# as §1, with “FuGene HD Transfection Reagent (Promega) was used according to the manufacturer’s protocol for the generation of stable cell line expressing h4-WT, r4-WT, h4-I312T, and r4-T312I.” left out
# as §2, with “To load cells with calcium-sensitive fluorescent dye, culture medium was replaced with modified Ringer’s buffer (140 mM NaCl, 10 mM HEPES, 10 mM Glucose, 1 mM MgCl2, 1 mM CaCl2, 2.5 mM KCl, 0.5% BSA, pH = 7.4) containing 2.6 μM FLUO4-AM (Fisher Scientific) and 250 μM probenecid (Sigma), and cells were incubated for 20–30 min.” left out
# Data processing and data analysis were carried out using Graphpad Prism version 6 for Mac. Figures are presented as Mean ± SEM. […] When comparing data obtained from multiple independent experiments (N), each dataset was normalized to the mean value obtained for the vehicle control.
compound,measurement,setting,value
CC(C)c1cc(Br)c(NC(=O)Nc2cccnc2)c(Br)c1 [BX430],pIC50,rP2X4,< 5.00
same,capability of blocking the open channel,human P2X4 open channel,capable of blocking the open channel
same,pIC50,[1],4.18
same,Hill coefficient (BX-430 inhibition curve),"[1]; rat P2X4 WT, 1 µM ATP",1.441
same,decrease in BX-430 potency by I312T mutation in human P2X4,[2]; human P2X4 I312T vs human P2X4 WT,> 48 fold
same,Hill coefficient (BX-430 inhibition curve),"[2]; human P2X4 I312T, 1 µM ATP",2.057
